From ChEMBL document CHEMBL4819081 (Eur J Med Chem, 2021)
Active and inactive are the calls of the source. The calls are words filed in the database; no cut-off is given here.

Assays:
[1] = test system: MDA-MB-453; experiment: Potency index, ratio of IC50 for Palbociclib to IC50 for test compound for antiproliferative activity against human MDA-MB-453 cells assessed as reduction in cell viability after 72 hrs by MTT assay; format: functional
[2] = test system: MDA-MB-231; experiment: Induction of apoptosis in human MDA-MB-231 cells assessed as late apoptotic cells at 0.625 uM after 24 hrs by Annexin-V/PI-staining based flow cytometry (reference value: 3.02%); format: functional
[3] = test system: MCF7; experiment: Potency index, ratio of IC50 for Palbociclib to IC50 for test compound for antiproliferative activity against human MCF7 cells assessed as reduction in cell viability after 72 hrs by MTT assay; format: functional
[4] = test system: MDA-MB-231; experiment: Antitumor activity against human MDA-MB-231 cells xenografted in po dosed BALB/c mouse assessed as reduction in tumor weight measured every 3 days for 21 days; format: functional, organism-based; details: dose 40-80 mg/kg, time […]
[5] = test system: MDA-MB-231; experiment: Induction of apoptosis in human MDA-MB-231 cells assessed as early apoptotic cells at 10 uM after 24 hrs by Annexin-V/PI-staining based flow cytometry (reference value: 2.67%); format: functional
[6] = test system: NCI-H1299; experiment: Antiproliferative activity against human NCI-H1299 cells assessed as reduction in cell viability after 72 hrs by MTT assay; format: functional, cell-based; details: NCI-H1299, 72 h
[7] = target: Cyclin-dependent kinase 4/6 (Homo sapiens) (UniProt P11802+Q00534); experiment: Inhibition of CDK4/6 in human MDA-MB-231 cells assessed as reduction in Rb phosphorylation at Ser780 after 24 hrs by western blot analysis; format: cell-based; details: dose 0.5-4 µM
[8] = test system: MDA-MB-231; experiment: Antitumor activity against human MDA-MB-231 cells xenografted in BALB/c mouse assessed as tumor growth inhibition at 80 mg/kg, po measured every 3 days for 21 days; format: functional; details: MDA-MB-231, po, 504 h, time 21 day, read-out: TGI
[9] = target: CDK7/Cyclin H/MNAT1 (Homo sapiens, UniProt P50613); experiment: Inhibition of CDK7/cyclin H/MAT1 (unknown origin); format: protein-complex assay
[10] = test system: MDA-MB-231; experiment: Induction of cell cycle arrest in human MDA-MB-231 cells assessed as accumulation at G1 phase at 0.375 uM after 12 hrs by propidium iodide staining-based flow cytometric analysis (reference value: 53.11%); format: functional
[11] = test system: MDA-MB-231; experiment: Induction of apoptosis in human MDA-MB-231 cells assessed as late apoptotic cells at 2.5 uM after 24 hrs by Annexin-V/PI-staining based flow cytometry (reference value: 3.02%); format: functional
[12] = target: Cyclin-dependent kinase 4/cyclin D1 (Homo sapiens) (UniProt P11802+P24385); experiment: Inhibition of CDK4/Cyclin D1 (unknown origin) at 200 nM using ATP by mobility shift assay; format: protein-complex assay
[13] = test system: MDA-MB-231; experiment: Antitumor activity against human MDA-MB-231 cells xenografted in po dosed BALB/c mouse assessed as reduction in tumor volume measured every 3 days for 21 days; format: functional, organism-based; details: dose 40-80 mg/kg, time 21.0 day
[14] = test system: MDA-MB-231; experiment: Antitumor activity against human MDA-MB-231 cells xenografted in BALB/c mouse assessed as tumor growth inhibition at 40 mg/kg, po measured every 3 days for 21 days; format: functional; details: MDA-MB-231, po, 504 h, time 21 day, read-out: TGI
[15] = test system: MDA-MB-231; experiment: Induction of apoptosis in human MDA-MB-231 cells assessed as late apoptotic cells at 1.25 uM after 24 hrs by Annexin-V/PI-staining based flow cytometry (reference value: 3.02%); format: functional
[16] = target: CDK6/cyclin D3 (Homo sapiens) (UniProt P30281+Q00534); experiment: Inhibition of CDK6/Cyclin D3 (unknown origin) at 20 nM using ATP by mobility shift assay; format: protein-complex assay
[17] = test system: MDA-MB-231; experiment: Inhibition of clone formation in human MDA-MB-231 cells at 0.16 uM after 14 days by crystal violet staining based-colony formation assay; format: functional, cell-based; details: time 14.0 day
[18] = test system: MDA-MB-231; experiment: Induction of cell cycle arrest in human MDA-MB-231 cells assessed as accumulation at G1 phase at 1.5 uM after 12 hrs by propidium iodide staining-based flow cytometric analysis (reference value: 53.11%); format: functional
[19] = test system: MDA-MB-231; experiment: Induction of apoptosis in human MDA-MB-231 cells assessed as early apoptotic cells at 1.25 uM after 24 hrs by Annexin-V/PI-staining based flow cytometry (reference value: 2.67%); format: functional
[20] = test system: MDA-MB-231; experiment: Induction of cell cycle arrest in human MDA-MB-231 cells assessed as accumulation at G2 phase at 0.75 uM after 12 hrs by propidium iodide staining-based flow cytometric analysis (reference value: 21.11%); format: functional
[21] = Inhibition of clone formation in human MDA-MB-231 cells at 0.625 uM after 14 days by crystal violet staining based-colony formation assay; format: functional; details: MDA-MB-231, 336 h, time 14 day
[22] = test system: MDA-MB-231; experiment: Induction of cell cycle arrest in human MDA-MB-231 cells assessed as accumulation at S phase at 0.375 uM after 12 hrs by propidium iodide staining-based flow cytometric analysis (reference value: 21.11%); format: functional
[23] = test system: MDA-MB-231; experiment: Induction of cell cycle arrest in human MDA-MB-231 cells assessed as accumulation at G1 phase at 0.75 uM after 12 hrs by propidium iodide staining-based flow cytometric analysis (reference value: 53.11%); format: functional
[24] = target: CDK2/Cyclin A2 (Homo sapiens, UniProt P24941); experiment: Inhibition of CDK2/cyclin A2 (unknown origin); format: protein-complex assay
[25] = test system: MDA-MB-231; experiment: Induction of apoptosis in human MDA-MB-231 cells assessed as late apoptotic cells at 5 uM after 24 hrs by Annexin-V/PI-staining based flow cytometry (reference value: 3.02%); format: functional
[26] = test system: MDA-MB-231; experiment: Induction of apoptosis in human MDA-MB-231 cells assessed as early apoptotic cells at 0.625 uM after 24 hrs by Annexin-V/PI-staining based flow cytometry (reference value: 2.67%); format: functional
[27] = test system: MDA-MB-231; experiment: Induction of cell cycle arrest in human MDA-MB-231 cells assessed as accumulation at S phase at 0.1875 uM after 12 hrs by propidium iodide staining-based flow cytometric analysis (reference value: 23.71%); format: functional
[28] = test system: MDA-MB-231; experiment: Induction of cell cycle arrest in human MDA-MB-231 cells assessed as accumulation at S phase at 0.75 uM after 12 hrs by propidium iodide staining-based flow cytometric analysis (reference value: 23.71%); format: functional
[29] = target: Cyclin-dependent kinase 9 (Homo sapiens, UniProt P50750); experiment: Inhibition of CDK9 (unknown origin)
[30] = test system: MDA-MB-231; experiment: Induction of cell cycle arrest in human MDA-MB-231 cells assessed as accumulation at G2 phase at 1.5 uM after 12 hrs by propidium iodide staining-based flow cytometric analysis (reference value: 21.11%); format: functional
[31] = test system: MCF7; experiment: Antiproliferative activity against human MCF7 cells assessed as reduction in cell viability after 72 hrs by MTT assay; format: functional, cell-based; details: MCF7, 72 h
[32] = Toxicity in BALB/c mouse xenografted with human MDA-MB-231 cells assessed as body weight change at 40 to 80 mg/kg, po measured every 3 days for 21 days; format: organism-based; details: in vivo, 72 h, dose 40-80 mg/kg, time 3 day
[33] = test system: MDA-MB-231; experiment: Induction of cell cycle arrest in human MDA-MB-231 cells assessed as accumulation at S phase at 0.375 uM after 12 hrs by propidium iodide staining-based flow cytometric analysis (reference value: 23.71%); format: functional

Chain of Cyclin-dependent kinase 9 (P50750 whole entry): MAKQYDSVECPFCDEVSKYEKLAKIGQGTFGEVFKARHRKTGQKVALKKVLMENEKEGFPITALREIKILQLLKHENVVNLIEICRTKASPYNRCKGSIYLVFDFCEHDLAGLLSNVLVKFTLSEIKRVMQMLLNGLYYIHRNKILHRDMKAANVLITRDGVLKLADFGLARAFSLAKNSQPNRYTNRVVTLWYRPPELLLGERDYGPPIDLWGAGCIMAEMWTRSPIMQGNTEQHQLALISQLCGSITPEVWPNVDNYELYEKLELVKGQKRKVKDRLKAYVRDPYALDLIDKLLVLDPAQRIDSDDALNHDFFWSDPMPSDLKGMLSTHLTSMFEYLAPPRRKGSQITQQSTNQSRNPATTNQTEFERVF
Chain of Cyclin-dependent kinase 4/6 (Homo sapiens) (P11802 whole entry, looked up): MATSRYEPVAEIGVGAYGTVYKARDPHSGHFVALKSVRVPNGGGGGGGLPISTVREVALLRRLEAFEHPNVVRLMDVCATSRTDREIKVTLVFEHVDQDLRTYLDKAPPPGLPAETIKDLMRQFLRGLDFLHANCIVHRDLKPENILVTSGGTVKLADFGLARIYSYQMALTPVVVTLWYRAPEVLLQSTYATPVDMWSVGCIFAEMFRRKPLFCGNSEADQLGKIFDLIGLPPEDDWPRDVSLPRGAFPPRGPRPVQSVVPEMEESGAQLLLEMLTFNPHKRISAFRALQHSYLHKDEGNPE
Chain of Cyclin-dependent kinase 4/6 (Homo sapiens) (Q00534 whole entry, looked up): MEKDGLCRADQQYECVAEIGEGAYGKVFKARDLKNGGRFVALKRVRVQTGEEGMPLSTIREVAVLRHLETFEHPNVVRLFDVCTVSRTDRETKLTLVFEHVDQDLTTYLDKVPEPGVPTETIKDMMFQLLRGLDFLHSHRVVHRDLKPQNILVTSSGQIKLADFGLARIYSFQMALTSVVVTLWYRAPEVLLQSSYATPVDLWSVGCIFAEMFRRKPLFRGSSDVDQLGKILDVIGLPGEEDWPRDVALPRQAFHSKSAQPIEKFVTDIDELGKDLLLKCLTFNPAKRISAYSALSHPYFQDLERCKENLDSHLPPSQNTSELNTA
Chain of CDK7/Cyclin H/MNAT1 (P51946 whole entry): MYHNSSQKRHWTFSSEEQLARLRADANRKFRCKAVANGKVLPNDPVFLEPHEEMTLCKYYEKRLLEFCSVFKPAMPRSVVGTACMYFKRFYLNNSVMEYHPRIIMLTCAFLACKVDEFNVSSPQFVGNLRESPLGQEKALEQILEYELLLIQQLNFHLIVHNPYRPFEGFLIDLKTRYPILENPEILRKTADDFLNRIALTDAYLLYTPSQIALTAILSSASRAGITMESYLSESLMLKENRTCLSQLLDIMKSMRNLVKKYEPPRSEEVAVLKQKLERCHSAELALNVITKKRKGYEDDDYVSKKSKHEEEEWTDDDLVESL
Chain of CDK7/Cyclin H/MNAT1 (P50613 whole entry): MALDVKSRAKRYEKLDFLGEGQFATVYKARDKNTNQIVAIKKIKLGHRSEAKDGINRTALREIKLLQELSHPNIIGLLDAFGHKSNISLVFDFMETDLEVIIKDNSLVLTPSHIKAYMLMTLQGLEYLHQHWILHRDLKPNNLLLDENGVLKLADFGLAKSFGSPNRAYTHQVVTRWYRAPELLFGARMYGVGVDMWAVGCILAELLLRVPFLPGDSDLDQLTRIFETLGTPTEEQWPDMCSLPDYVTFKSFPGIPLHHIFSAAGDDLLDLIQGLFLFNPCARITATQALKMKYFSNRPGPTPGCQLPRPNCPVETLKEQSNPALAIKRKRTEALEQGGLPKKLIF
Chain of CDK7/Cyclin H/MNAT1 (P51948 whole entry, further chain): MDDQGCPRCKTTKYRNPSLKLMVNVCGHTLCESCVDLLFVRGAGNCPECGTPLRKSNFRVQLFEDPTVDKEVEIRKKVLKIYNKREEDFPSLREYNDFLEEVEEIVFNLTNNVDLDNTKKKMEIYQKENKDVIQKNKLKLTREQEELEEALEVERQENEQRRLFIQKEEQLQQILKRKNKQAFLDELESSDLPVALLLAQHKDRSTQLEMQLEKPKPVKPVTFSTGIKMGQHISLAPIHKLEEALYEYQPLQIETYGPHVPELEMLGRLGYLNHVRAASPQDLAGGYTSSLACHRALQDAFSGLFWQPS

IC50 [6]: 2490 nM | inhibition [7]: Dose-Dependent Effect | IC50 [9]: > 3.33 µM | inhibition [12]: 93.8% | inhibition [16]: 81.6% | IC50 [24]: 7.6 µM | IC50 [29]: 1830 nM | IC50 [31]: 380 nM
SMILES: CC(=O)c1c(C)c2cnc(Nc3ccc(N4CCN(C(=O)CCl)CC4)cn3)nc2n(C2CCCC2)c1=O
Ratio IC50 [1]: 40 | Activity [2]: 3.82% | Ratio IC50 [3]: 40 | inhibition [4]: Dose-Dependent Effect | Activity [5]: 68.48% | inhibition in vivo at 80 mg/kg [8]: 105% | Activity [10]: 68.34% | Activity [11]: 31.65% | inhibition [13]: Dose-Dependent Effect | inhibition in vivo at 40 mg/kg [14]: 93.5% | Activity [15]: 9.72% | inhibition [17]: Active | Activity [18]: 71.12% | Activity [19]: 7.72% | Activity [20]: 16.49% | inhibition at 0.625 µM [21]: 100% | Activity [22]: 14.99% | Activity [23]: 71% | Activity [25]: 27.32% | Activity [26]: 4.24% | Activity [27]: 15.55% | Activity [28]: 11.05% | Activity [30]: 19.72% | Activity [32]: Non-Toxic | Activity [33]: 15.36%
